Data from article PMC9868654, “Discovery of a potent olaparib–chlorambucil hybrid inhibitor of PARP1 for the treatment of cancer” (Frontiers in Pharmacology, 2023).

Biological target: PARP1 (Homo sapiens, UniProt P09874)
Assay: PARP1 enzyme inhibitory assay
Type: biochemical
Settings: mean of three experiments

Sequence of PARP1 (P09874 whole entry): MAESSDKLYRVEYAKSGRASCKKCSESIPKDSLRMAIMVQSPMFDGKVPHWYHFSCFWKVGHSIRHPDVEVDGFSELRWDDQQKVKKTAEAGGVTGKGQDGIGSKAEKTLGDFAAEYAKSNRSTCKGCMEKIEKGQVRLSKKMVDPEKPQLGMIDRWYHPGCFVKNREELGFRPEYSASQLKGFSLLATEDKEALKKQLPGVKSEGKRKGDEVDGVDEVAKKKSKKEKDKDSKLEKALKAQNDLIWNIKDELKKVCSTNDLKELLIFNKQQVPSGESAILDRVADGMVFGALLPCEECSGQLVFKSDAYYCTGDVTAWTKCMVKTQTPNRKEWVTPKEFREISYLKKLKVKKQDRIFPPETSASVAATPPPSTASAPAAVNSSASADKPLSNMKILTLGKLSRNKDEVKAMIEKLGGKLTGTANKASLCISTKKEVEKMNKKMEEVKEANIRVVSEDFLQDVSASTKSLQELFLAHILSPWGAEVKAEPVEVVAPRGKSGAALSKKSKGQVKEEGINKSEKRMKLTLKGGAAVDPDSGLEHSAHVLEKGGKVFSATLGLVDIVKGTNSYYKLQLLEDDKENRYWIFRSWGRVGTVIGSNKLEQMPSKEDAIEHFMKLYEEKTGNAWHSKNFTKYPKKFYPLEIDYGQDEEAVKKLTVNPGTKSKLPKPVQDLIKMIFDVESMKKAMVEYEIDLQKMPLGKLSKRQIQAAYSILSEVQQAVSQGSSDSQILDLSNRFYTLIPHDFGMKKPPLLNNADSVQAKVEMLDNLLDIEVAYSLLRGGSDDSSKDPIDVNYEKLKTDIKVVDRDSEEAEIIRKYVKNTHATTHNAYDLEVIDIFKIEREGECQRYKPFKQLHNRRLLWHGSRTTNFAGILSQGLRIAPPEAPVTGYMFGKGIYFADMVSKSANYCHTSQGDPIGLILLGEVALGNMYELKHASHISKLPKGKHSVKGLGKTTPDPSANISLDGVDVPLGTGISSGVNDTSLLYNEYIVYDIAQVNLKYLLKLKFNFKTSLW

O=C(c1ccccc1)N1CCN(Cc2cc(Cc3n[nH]c(=O)c4ccccc34)ccc2F)CC1 [A12, 4-(3-((4-Benzoylpiperazin-1-yl)methyl)-4-fluorobenzyl)phthalazin-1(2H)-one]
IC50 (Table 1, A series): > 50 nM

CCCCCNNC(=O)c1cc(Cc2n[nH]c(=O)c3ccccc23)ccc1F [B5, 2-Fluoro-5-((4-oxo-3,4-dihydrophthalazin-1-yl)methyl)-N′-pentylbenzohydrazide]
IC50 (Table 2, B and C series): 5.2 ± 0.4 nM

O=C(c1cccc(F)c1)N1CCN(Cc2cc(Cc3n[nH]c(=O)c4ccccc34)ccc2F)CC1 [A3, 4-(4-Fluoro-3-((4-(3-fluorobenzoyl)piperazin-1-yl)methyl)benzyl)phthalazin-1(2H)-one]
IC50 (Table 1, A series): 17.6 ± 1.3 nM

O=C(c1cccc(Br)c1)N1CCN(Cc2cc(Cc3n[nH]c(=O)c4ccccc34)ccc2F)CC1 [A8, 4-(3-((4-(3-Bromobenzoyl)piperazin-1-yl)methyl)-4-fluorobenzyl)phthalazin-1(2H)-one]
IC50 (Table 1, A series): 22.5 ± 2.1 nM

Cc1ccccc1C(=O)N1CCN(Cc2cc(Cc3n[nH]c(=O)c4ccccc34)ccc2F)CC1 [A9, 4-(4-Fluoro-3-((4-(2-methylbenzoyl)piperazin-1-yl)methyl)benzyl)phthalazin-1(2H)-one]
IC50 (Table 1, A series): 12.6 ± 1.1 nM

O=C(c1ccccc1F)N1CCN(Cc2cc(Cc3n[nH]c(=O)c4ccccc34)ccc2F)CC1 [A2, 4-(4-Fluoro-3-((4-(2-fluorobenzoyl)piperazin-1-yl)methyl)benzyl)phthalazin-1(2H)-one]
IC50 (Table 1, A series): 29.4 ± 2.2 nM

COC(=O)C1CCN(Cc2cc(Cc3n[nH]c(=O)c4ccccc34)ccc2F)CC1 [A17, Methyl1-(2-fluoro-5-((4-oxo-3,4-dihydrophthalazin-1-yl)methyl)benzyl)piperidine-4-carboxylate]
IC50 (Table 1, A series): > 50 nM

COc1ccccc1C(=O)N1CCN(Cc2cc(Cc3n[nH]c(=O)c4ccccc34)ccc2F)CC1 [A11, 4-(4-Fluoro-3-((4-(2-methoxybenzoyl)piperazin-1-yl)methyl)benzyl)phthalazin-1(2H)-one]
IC50 (Table 1, A series): 29.4 ± 2.3 nM

CCCCCCNNC(=O)c1cc(Cc2n[nH]c(=O)c3ccccc23)ccc1F [B6, 2-Fluoro-N′-hexyl-5-((4-oxo-3,4-dihydrophthalazin-1-yl)methyl)benzohydrazide]
IC50 (Table 2, B and C series): 9.4 ± 0.8 nM

O=c1[nH]nc(Cc2ccc(F)c(CN3CCC(N4CCCCC4)CC3)c2)c2ccccc12 [A16, 4-(3-([1,4′-Bipiperidin]-1′-ylmethyl)-4-fluorobenzyl)phthalazin-1(2H)-one]
IC50 (Table 1, A series): > 50 nM

O=C(c1ccccc1Cl)N1CCN(Cc2cc(Cc3n[nH]c(=O)c4ccccc34)ccc2F)CC1 [A7, 4-(3-((4-(2-Chlorobenzoyl)piperazin-1-yl)methyl)-4-fluorobenzyl)phthalazin-1(2H)-one]
IC50 (Table 1, A series): 24.6 ± 2.1 nM

CC(C)CNNC(=O)c1cc(Cc2n[nH]c(=O)c3ccccc23)ccc1F [B4, 2-Fluoro-N′-isobutyl-5-((4-oxo-3,4-dihydrophthalazin-1-yl)methyl)benzohydrazide]
IC50 (Table 2, B and C series): 11.8 ± 1.3 nM

O=C(c1cccc(C(F)(F)F)c1)N1CCN(Cc2cc(Cc3n[nH]c(=O)c4ccccc34)ccc2F)CC1 [A6, 4-(4-Fluoro-3-((4-(3-(trifluoromethyl)benzoyl)piperazin-1-yl)methyl)benzyl)phthalazin-1(2H)-one]
IC50 (Table 1, A series): > 50 nM

O=c1[nH]nc(Cc2ccc(F)c(CN3CCN(Cc4ccc5c(c4)OCO5)CC3)c2)c2ccccc12 [A15, 4-(3-((4-(Benzo[d][1,3]dioxol-5-ylmethyl)piperazin-1-yl)methyl)-4-fluorobenzyl)phthalazin-1(2H)-one]
IC50 (Table 1, A series): > 50 nM
